From publication PMC9823097, “Dysregulation of PRMT5 in chronic lymphocytic leukemia promotes progression with high risk of Richter’s transformation” (Nature Communications, 2023)
Values joined by “and” are separate entries in the source; they are usually repeats but may differ in a detail not shown here. Equal entries are not always repeated. “Also recorded” adds a separate entry of the source.

Columns and labels:
HG3 CLL cell line = experiment: Global symmetric dimethyl arginine (SDMA) western blot, HG3; assay type: cell-based; conditions: HG3, EPZ015666 for 72hr
From the text: Proteins extracted from whole-cell lysates were resolved by SDS-PAGE and transferred on nitrocellulose membrane as previously described. CpG685 oligonucleotide was obtained from the OSU Cytogenetics Core Lab. Antibodies used for immunoblots included anti-human PRMT5 (Abcam #ab109451), GAPDH (Millipore Sigma #MAB374), SDMA (Cell Signaling Technology #13222), c-Myc (Cell Signaling Technology #5605S), and β-Actin (Cell Signaling Technology #4967S). Cas9-mediated doxycycline-inducible knockout of PRMT5 utilized a targeted sgRNA (guide sequence: […], PAM: GGG).

Mec-1 cells = experiment: Cell growth curves over 12 days, Mec-1; assay type: cell-based
Method: Live cells/mL were counted on days 3, 6, 10, and 12. […] The split factor was calculated at indicated time points by dividing the counted cells/mL by 3E5. Cell growth was extrapolated over time by multiplying the subsequent cell count by the previous split factor. Cell growth is plotted as fold change relative to DMSO-treated cells.

[1] = tested on: Eµ-PRMT5/TCL1 Cd19+Cd5+ spleen cells engrafted into immunocompetent C57/BL6J mice; experiment: Adoptive transfer of Eµ-PRMT5/TCL1 spleen cells into C57/BL6J mice, treatment study; assay type: in vivo
Method: For adoptive transfer, viable Cd19^+Cd5^+ cells (5 × 10^6) from the spleen of an Eµ-PRMT5/TCL1 transgenic mouse with active CLL-like leukemia (>80% circulating in peripheral blood) and palpable splenomegaly were engrafted by tail vein into immunocompetent C57/BL6J female mice. Engrafted mice were randomly assigned to treatment conditions: PRT382 10 mg/kg, EPZ015666 50 mg/kg, or vehicle (0.5% methylcellulose, 0.1% tween) at 1-week post engraftment. All treatments were administered by oral gavage 4 contiguous days per week (Mon-Thurs). Predefined euthanasia criteria for mice in all transgenic colonies and murine transplant models were followed and included lethargy, impaired motility, splenomegaly, enlarged lymph nodes and/or superficial lymphoid tumors greater than 1.6 cm in diameter (or cumulative diameter of 1.6 cm if multiple tumors), decrease in body weight (>20%), ruffled fur, hunched back, failure to nest, and loss of appetite.

## O=C(NC[C@H](O)CN1CCc2ccccc2C1)c1cc(NC2COC2)ncn1 [EPZ015666]
HG3 CLL cell line
  global symmetric dimethyl arginine residues (immunoblot): dose dependent global loss; also recorded: only a modest decrease
Mec-1 cells; Mec-1, 1 nM, day 0
  Rep 1 Live Cells [Fold Change]: 1 Fold Change
  Rep 2 Live Cells [Fold Change]: 1 Fold Change
Mec-1 cells; Mec-1, 1 nM, day 3
  Rep 1 Live Cells [Fold Change]: 8.617 Fold Change
  Rep 2 Live Cells [Fold Change]: 9.35 Fold Change
Mec-1 cells; Mec-1, 1 nM, day 6
  Rep 1 Live Cells [Fold Change]: 72.0928 Fold Change
  Rep 2 Live Cells [Fold Change]: 74.5 Fold Change
Mec-1 cells; Mec-1, 1 nM, day 10
  Rep 1 Live Cells [Fold Change]: 633.719 Fold Change
  Rep 2 Live Cells [Fold Change]: 819 Fold Change
Mec-1 cells; Mec-1, 1 nM, day 12
  Rep 1 Live Cells [Fold Change]: 3882.24 Fold Change
  Rep 2 Live Cells [Fold Change]: 4970 Fold Change
Mec-1 cells; Mec-1, 10 nM, day 0
  Rep 1 Live Cells [Fold Change]: 1 Fold Change
  Rep 2 Live Cells [Fold Change]: 1 Fold Change
Mec-1 cells; Mec-1, 10 nM, day 3
  Rep 1 Live Cells [Fold Change]: 7.233 Fold Change
  Rep 2 Live Cells [Fold Change]: 10.3 Fold Change
Mec-1 cells; Mec-1, 10 nM, day 6
  Rep 1 Live Cells [Fold Change]: 40.9889 Fold Change
  Rep 2 Live Cells [Fold Change]: 85.8 Fold Change
Mec-1 cells; Mec-1, 10 nM, day 10
  Rep 1 Live Cells [Fold Change]: 534.674 Fold Change
  Rep 2 Live Cells [Fold Change]: 1290 Fold Change
Mec-1 cells; Mec-1, 10 nM, day 12
  Rep 1 Live Cells [Fold Change]: 1546.22 Fold Change
  Rep 2 Live Cells [Fold Change]: 3960 Fold Change
Mec-1 cells; Mec-1, 100 nM, day 0
  Rep 1 Live Cells [Fold Change]: 1 Fold Change
  Rep 2 Live Cells [Fold Change]: 1 Fold Change
  Rep 3 Live Cells [Fold Change]: 1 Fold Change
  Rep 4 Live Cells [Fold Change]: 1 Fold Change
Mec-1 cells; Mec-1, 100 nM, day 3
  Rep 1 Live Cells [Fold Change]: 10.3 Fold Change
  Rep 2 Live Cells [Fold Change]: 8.66 Fold Change
  Rep 3 Live Cells [Fold Change]: 6.583 Fold Change
  Rep 4 Live Cells [Fold Change]: 8.22 Fold Change
Mec-1 cells; Mec-1, 100 nM, day 6
  Rep 1 Live Cells [Fold Change]: 88.992 Fold Change
  Rep 2 Live Cells [Fold Change]: 55.1353 Fold Change
  Rep 3 Live Cells [Fold Change]: 56.8361 Fold Change
  Rep 4 Live Cells [Fold Change]: 60.1 Fold Change
Mec-1 cells; Mec-1, 100 nM, day 10
  Rep 2 Live Cells [Fold Change]: 518.272 Fold Change
  Rep 3 Live Cells [Fold Change]: 601.592 Fold Change
  Rep 4 Live Cells [Fold Change]: 484 Fold Change
Mec-1 cells; Mec-1, 100 nM, day 12
  Rep 1 Live Cells [Fold Change]: 615.119 Fold Change
  Rep 2 Live Cells [Fold Change]: 1560 Fold Change
  Rep 3 Live Cells [Fold Change]: 1676.06 Fold Change
  Rep 4 Live Cells [Fold Change]: 3230 Fold Change
Mec-1 cells; Mec-1, 1 µM, day 0
  Rep 1 Live Cells [Fold Change]: 1 Fold Change
  Rep 2 Live Cells [Fold Change]: 1 Fold Change
  Rep 3 Live Cells [Fold Change]: 1 Fold Change
  Rep 4 Live Cells [Fold Change]: 1 Fold Change
Mec-1 cells; Mec-1, 1 µM, day 3
  Rep 1 Live Cells [Fold Change]: 7.867 Fold Change
  Rep 2 Live Cells [Fold Change]: 5.46 Fold Change
  Rep 3 Live Cells [Fold Change]: 6.18 Fold Change
  Rep 4 Live Cells [Fold Change]: 8.87 Fold Change
Mec-1 cells; Mec-1, 1 µM, day 6
  Rep 1 Live Cells [Fold Change]: 54.0178 Fold Change
  Rep 2 Live Cells [Fold Change]: 38.4384 Fold Change
  Rep 3 Live Cells [Fold Change]: 49.852 Fold Change
  Rep 4 Live Cells [Fold Change]: 61.2 Fold Change
Mec-1 cells; Mec-1, 1 µM, day 10
  Rep 1 Live Cells [Fold Change]: 514.04 Fold Change
  Rep 2 Live Cells [Fold Change]: 244.725 Fold Change
  Rep 3 Live Cells [Fold Change]: 462.377 Fold Change
  Rep 4 Live Cells [Fold Change]: 387 Fold Change
Mec-1 cells; Mec-1, 1 µM, day 12
  Rep 1 Live Cells [Fold Change]: 1825.77 Fold Change
  Rep 2 Live Cells [Fold Change]: 748.774 Fold Change
  Rep 3 Live Cells [Fold Change]: 1841.8 Fold Change
  Rep 4 Live Cells [Fold Change]: 1610 Fold Change
Mec-1 cells; Mec-1, continuous exposure over 12 days
  effect on growth potential (cell growth): No changes in growth potential
[1]; Figure 7F, per mouse, week 1, in % (unit assumed)
  Week 1 CD19+/B220dim: 11.48 and 18.62 and 27.54 and 11.19 and 10.12 and 10.58 and 15.76 and 16.07 and 10.74
[1]; Figure 7F, per mouse, week 2, in % (unit assumed)
  Week 2 CD19+/B220dim: 15.67 and 34.32 and 54.88 and 26.83 and 24.62 and 12.62 and 27.46 and 30.9 and 21.08
[1]; Figure 7F, per mouse, week 3, in % (unit assumed)
  Week 3 CD19+/B220dim: 36.29 and 68.26 and 63.64 and 49.66 and 47.13 and 26.83 and 51.14 and 52.04 and 25.17
[1]; Figure 7F, per mouse, week 4, in % (unit assumed)
  Week 4 CD19+/B220dim: 56.34 and 75.81 and 60.54 and 71.56 and 63.33 and 48.69 and 69.46 and 71.25 and 53.76
[1]; Figure 7F, per mouse, week 5
  Week 5 CD19+/B220dim: 50.26 and 79.76 and 83.28 and 82.04 and 59.53 and 59.67 and 70.88 and 81.41 and 79.52
[1]; Figure 7F, per mouse, week 6, in % (unit assumed)
  Week 6 CD19+/B220dim: 79.53 and 74.33 and 84.12 and 75.35 and 79.18 and 56.6 and 82.56 and 74.54 and 89.39
[1]; Figure 7F, per mouse, week 7, in % (unit assumed)
  Week 7 CD19+/B220dim: 80.7 and 87.13 and 89.6 and 89.4 and 86.59 and 66 and 85.98 and 83.54 and 93.2
[1]; Figure 7F, per mouse, week 8
  Week 8 CD19+/B220dim: 84.94 and 92.1 and 90.67 and 85.36 and 88.33 and 44.29 and 85.8 and 89.46
[1]; Figure 7F, per mouse, week 9
  Week 9 CD19+/B220dim: 85.98 and 79.2 and 88.88
[1]; Figure 7F, per mouse, week 10, in % (unit assumed)
  Week 10 CD19+/B220dim: 88.79
[1]; Figure 7G, survival endpoint indicator, per mouse
  Endpoint: 1
[1]; Figure 7G, survival, per mouse
  Days since enrollment: 64 days and 50 days and 52 days and 51 days and 58 days and 45 days
[1]; Figure 7H, per mouse
  Spleen weight: 1.7 g and 2.27 g and 2.35 g and 2.58 g and 2.18 g and 1.84 g and 2.11 g and 1.38 g
[1]; PRT382 10 mg/kg, EPZ015666 50 mg/kg, oral gavage 4 contiguous days per week
  Median survival post-enrollment: 51 days
[1]; individual mice, Supplemental Figure 6F
  Spleen volume: 1489.45 mm3 and 4749.69 mm3 and 2852.93 mm3 and 3279.99 mm3 and 2090.66 mm3 and 1726.14 mm3 and 2169.7 mm3 and 1234.53 mm3
